Source: US8101616B2, “Pyridine and pyrimidine derivatives as inhibitors of histone deacetylase” (Janssen Pharmaceutica N.V., priority 2006, dated 2012)
Values after ≈ are worked out from the molar mass of the structure shown. Where two headings read alike, the source gives them in different places.

Legend:
[1] = tested on: A2780 ovarian carcinoma cells; experiment: Antiproliferative activity on A2780 cells, MTT (C.2); assay type: cell-based; settings: Homo sapiens, 96 h, four days of incubation, read-out: Cellular activity pIC50 C.2 (converted)
Procedure: Cellular activity of the compounds of formula (I) was determined on A2780 tumour cells using a […] assay for cell toxicity or survival (Mosmann Tim, Journal of Immunological Methods 65: 55-63, 1983) (see example C.2).
All compounds tested were dissolved in DMSO and further dilutions were made in culture medium. Final DMSO concentrations never exceeded 0.1% (v/v) in cell proliferation assays. Controls contained A2780 cells and DMSO without compound and blanks contained DMSO but no cells. MTT was dissolved at 5 mg/ml in PBS. A glycine buffer comprised of 0.1 M glycine and 0.1 M NaCl buffered to pH 10.5 with NaOH (1 N) was prepared (all reagents were from Merck).
The human A2780 ovarian carcinoma cells (a kind gift from Dr. T. C. Hamilton [Fox Chase Cancer Centre, Pennsylvania, USA]) were cultured in RPMI 1640 medium supplemented with 2 mM L-glutamine, 50 μg/ml gentamicin and 10% fetal calf serum. Cells were routinely kept as monolayer cultures at 37° C. in a humidified 5% CO2 atmosphere. Cells were passaged once a week using a trypsin/EDTA solution at a split ratio of 1:40. All media and supplements were obtained from Life Technologies. Cells were free of mycoplasma contamination as determined using the Gen-Probe Mycoplasma Tissue Culture kit (supplier: BioMérieux).
Cells were seeded in NUNC™ 96-well culture plates (Supplier: Life Technologies) and allowed to adhere to the plastic overnight. Densities used for plating were 1500 cells per well in a total volume of 200 μl medium. After cell adhesion to the plates, medium was changed and drugs and/or solvents were added to a final volume of 200 μl. Following four days of incubation, medium was replaced by 200 μl fresh medium and cell density and viability was assessed using an MTT-based assay. […] For each sample, the mean value for cell growth (in absorbance units) was expressed as a percentage of the mean value for cell growth of the control. […] Herein the effects of test compounds are expressed as pIC50 (the negative log value of the IC50-value) (see Table F-2).

[2] = biological target: histone deacetylase (HeLa nuclear extracts); experiment: In vitro assay for inhibition of histone deacetylase with fluorescent-labelled substrate (C.1); assay type: biochemical; settings: Fluor de Lys substrate
Source text: The in vitro assay for inhibition of histone deacetylase (see example C.1) measures the inhibition of HDAC enzymatic activity obtained with the compounds of formula (I).
The HDAC Fluorescent Activity Assay/Drug Discovery Kit of Biomol (cat. No: AK-500-0001) was used. The HDAC Fluorescent Activity Assay is based on the Fluor de Lys (Fluorogenic Histone deAcetylase Lysyl) substrate and developer combination. The Fluor de Lys substrate, comprises an acetylated lysine side chain. Deacetylation of the substrate sensitizes the substrate so that, in the second step, treatment with the Fluor de Lys developer produces a fluorophore.
HeLa nuclear extracts (supplier: Biomol) were incubated at 60 μg/ml with 75 μM of substrate. The Fluor de Lys substrate was added in a buffer containing 25 mM Tris, 137 mM NaCl, 2.7 mM KCl and 1 mM MgCl2.6H2O at pH 7.4. After 30 min, 1 volume of the developer was added. The fluorophore was excited with 355 nm light and the emitted light (450 nm) was be detected on a fluorometric plate reader.
For each experiment, controls (containing HeLa nuclear extract and buffer), a blank incubation (containing buffer but no HeLa nuclear extract) and samples (containing compound dissolved in DMSO and further diluted in buffer and HeLa nuclear extract) were run in parallel. In first instance, compounds were tested at a concentration of 10^−5M. […] All sample were tested 4 times. In each test the blank value was substracted from both the control and the sample values. The control sample represented 100% of substrate deactylation. For each sample the fluorescence was expressed as a percentage of the mean value of the controls. […] Herein the effects of test compounds are expressed as pIC50 (the negative log value of the IC50-value) (see Table F-2).

[3] = Solubility at pH 2.3, chemiluminescent nitrogen detector (C.3.b); assay type: physicochemical
Procedure: The solubility of a compound measures the ability of a compound to stay in solution. In the first method, the ability of a compound to stay in aqueous solution upon dilution (see example C.3.a) is measured. DMSO-stock solutions are diluted with a single aqueous buffer solvent in different consecutive steps. In this method (C.3.a), mixtures are then scanned in the BD Gentest Solubility Scanner for the occurrence of precipitation. In a second method the solubility of a compound at different pH's can be measured with the use of a chemiluminescent nitrogen detector (see example C.3.b).
The solubility of a compound, at pH 2.3, can also be measured with the use of a chemiluminescent nitrogen detector (see Table F-2).

Row | Compound | IC50 [1] [µM] | Enzymatic activity pIC50 C.1 [2] | solubility [3] [mg/mL] | % metabolism (15 min incubation with active microsomes, reference compounds) [%] | % metabolism (human, 15 min, 5 μM) [%]
1 | Nc1ccccc1NC(=O)c1cnc(N2CCN(C(/C=C/c3cccc(F)c3)CO)CC2)nc1 (stereo not drawn) [Compound 2] | 0.251 | <6 | – | – | –
2 | COCC(/C=C/c1ccc(F)cc1)N1CCN(c2ccc(C(=O)Nc3ccccc3N)cn2)CC1 (stereo not drawn) [Compound 1] | 2.51 | <6 | – | – | –
3 | Nc1ccccc1NC(=O)c1cnc(N2CCN(C(/C=C/c3ccccc3)CO)CC2)nc1 (stereo not drawn) [Compound 3] | 0.2 | 4.8 | 3.7 (≈ 8.32 mM) | – | –
4 | CCCO [propanol] | – | – | – | 25 | –
5 | COc1cc(N)c(Cl)cc1C(=O)NC1CCN(CCCOc2ccc(F)cc2)CC1OC (stereo not drawn) [Cisapride] | – | – | – | – | 45
